# Laboratory results: publication PMC6801822, “The Bactericidal Activity of Temporin Analogues Against Methicillin Resistant Staphylococcus aureus” (International Journal of Molecular Sciences, 2019)
# Read-outs that look alike come from different tables or passages of the source. Non-standard residues stand in square brackets, D forms with d. Residues, ends and D or L forms follow the SMILES beside them. AEEA = NCCOCCOCC(=O)O
# Key:
# [1] = system: MRSA clinical isolate 6674; conditions: MRSA clinical isolate 6674 (blood); broth microdilution, MHB, 24 h
# Protocol: (§2) Antimicrobial activity of peptides was analyzed through determination of MIC parameter according to the standard microdilution technique performed on 96-well plates. Mueller-Hinton broth (MHB, Sigma Aldrich, St. Louis, MO, USA) was used as the working medium for all bacterial strains. Briefly, inoculum was prepared from freshly grown cultures of bacteria being at their exponential phase of growth. Each well of 96-well plates containing 100 µL of serially diluted peptides in PBS at desired concentration was inoculated with 100 µL of 10^5 CFU/mL of bacterial suspension. Then plates were incubated overnight 37 °C and absorbance was read at 600 nm after 24 h. Wells without peptide were treated as the positive control, while uninoculated MHB was defined as the negative control. All measurements were run in triplicates.
# [2] = system: S. epidermidis ATCC 12228; conditions: S. epidermidis ATCC 12228; broth microdilution, MHB, 37 °C, 24 h, triplicates
# Protocol: as §2
# HaCaT cells [3] = experiment: LDH release assay (CytoTox96); format: cell-based, human; conditions: for cytotoxicity (LDH), % of cells: HaCaT, 200 μg/mL
# Protocol: (§1) Figure 3 The influence of DAL-PEG-DK5 on physiology of human keratinocytes. The potentially toxic effect of DAL-PEG-DK5 on HaCaT cells was evaluated using (A) MTT and (B) LDH assay. Cells were plated on 96-well plates and incubated overnight. Next, keratinocytes were treated with the peptide at different concentrations (5–200 μg/mL) for 3, 6, 18 h. Mean ± SD n = 2. ** p < 0.005 *** p < 0.001 **** p < 0.0001; 2way ANOVA. (C) Morphology of HaCaT cells was examined by confocal laser scanning microscopy. HaCaT cells were treated with CFS-conjugated DAL-PEG-DK5 (25 μg/mL) for 30 min at 37 °C and were stained with: DAPI and phalloidin for nuclear detection and actin cytoskeleton detection, respectively. Blue – DNA; red – f-actin; green-peptide conjugate; scale bar: 10 μm. Images present single slice of XY stacks.
# To assess the effect of peptides on the integrity of the plasma membrane, the LDH release assay was performed using the CytoTox96 nonradioactive cytotoxicity assay kit (Promega, Madison, WI, USA) according to the manufacturer’s instructions. Cytotoxicity was calculated with the formula: % cytotoxicity = 100 × (experimental LDH release/ maximum LDH release), where maximum LDH release is after lysis solution addition (Triton X-100). Relative amounts of LDH release were measured (absorbance at 490 nm) using plate reader SpectraMax (Molecular Device, Wokingham, UK). All assays were performed in triplicate.
# S. aureus ATCC 25923 = conditions: S. aureus ATCC 25923; broth microdilution, MHB, 37 °C, 24 h, triplicates
# Protocol: as §2
# [4] = system: MRSA clinical isolate 56A1; conditions: MRSA clinical isolate 56A1 (skin); broth microdilution, MHB, 24 h
# Protocol: as §2
# [5] = system: MRSA S. aureus strains (clinical isolates)
# Protocol: as §2
# [6] = system: MRSA clinical isolate 7219; conditions: MRSA clinical isolate 7219 (blood); broth microdilution, MHB, 24 h
# Protocol: as §2
# [7] = system: MRSA clinical isolate 7501; conditions: MRSA clinical isolate 7501 (blood); broth microdilution, MHB, 24 h
# Protocol: as §2
# [8] = system: MRSA clinical isolate 2492; conditions: MRSA clinical isolate 2492 (blood); broth microdilution, MHB, 24 h
# Protocol: as §2
# [9] = system: MRSA clinical isolate 4187; conditions: MRSA clinical isolate 4187 (blood); broth microdilution, MHB, 24 h
# Protocol: as §2
# [10] = system: S. aureus USA300 (MRSA) in suspension; experiment: Killing of MRSA in suspension, CFU count; format: cell-based, Staphylococcus aureus; conditions: MRSA 2 × 10^6 CFU/mL, peptide 50 μg/mL, 1 h, n = 2
# [11] = cited from earlier work
# Text: The efficient antibacterial activity of the DAL-PEG-DK5 conjugate may be due to the fact that it has a higher cationic charge than DK5 (+7 vs. +6, respectively). However, a α-helicity must also play an important role in this case. According to a common view about the mechanism underlying the antimicrobial activity of AMPs, formation of hel ...
# [12] = system: MRSA clinical isolate 2872cv; conditions: MRSA clinical isolate 2872cv (blood); broth microdilution, MHB, 24 h
# Protocol: as §2
# S. aureus USA300 biofilm = experiment: Disruption of mature biofilm, crystal violet; conditions: mature biofilm (24 h) of USA300, peptide at 4 × MIC (160 μg/mL), n = 3
# Protocol: USA300 strain was grown in 96-well plates at 37 °C for 24 h to form biofilm. Peptide was added at desired concentrations and plates were incubated for additional 24 h. […] Mean ± SD n = 3. ** p < 0.0151; one-way ANOVA.
# Briefly, USA300 strain grown overnight was diluted 1:100 in TSB + 1% glucose and incubated in 96-well plates at 37 °C for 24 h. After removing media, wells were rinsed with PBS to remove planktonic bacteria before re-filling wells with fresh MHB. Peptide conjugates were added at desired concentrations and plates were incubated at 37 °C for 24 h. After incubation, wells were washed and biofilms were stained with 0.5% (w/v) crystal violet for 30 min. The dye was solubilized with ethanol (95%) and the OD of biofilms was measured.
# [13] = system: MRSA clinical isolate 2706; conditions: MRSA clinical isolate 2706 (blood); broth microdilution, MHB, 24 h
# Protocol: as §2
# HaCaT cells [14] = experiment: MTT cell viability test; format: cell-based, human
# Protocol: as §1
# The viability of HaCaT cells was examined by a 3-(4,5-dimethylthiazol-2-yl)-2,5-diphenyltetrazolium bromide (MTT, Sigma-Aldrich) reduction assay. In brief, cells were incubated with 10% (v/v) of a 5 mg/mL MTT solution for 1 to 2 h at 37 °C until purple precipitate is visible and acidified isopropanol was added followed by measuring of the absorbance at a wavelength of 570 nm.
# [15] = system: MRSA clinical isolate 7718; conditions: MRSA clinical isolate 7718 (blood); broth microdilution, MHB, 24 h
# Protocol: as §2
# S. aureus USA300 = experiment: LIVE/DEAD BacLight staining (SYTO9/PI); format: cell-based, Staphylococcus aureus; conditions: 3 h, n = 2
# Protocol: USA300 cells were collected from overnight cultures, at the end of the exponential growth phase and the beginning of the stationary phase, washed and suspended at 2 × 10^7 bacteria/mL and staphylococci were treated with DAL-PEG-DK5 (0.5–50 µg/mL) for 3 h. In order to obtain a standard curve, five different proportions of live and dead bacteria were mixed prior to staining. After the incubation, the 100 µL of bacterial suspensions were transferred to flat bottom black 96-well microtitration plate. Staining solution containing SYTO9 and PI (100 µL) prepared according to manufacturer’s instructions was then mixed with bacterial suspensions. Samples were incubated at room temperature in the dark for 15 min and fluorescence intensity was measured with FlexStation3 Multimode Microplate Reader using a 485 nm excitation filter (for both SYTO9 and PI) and a 530 nm (SYTO9 emission wavelength) and 630 nm (PI emission wavelength) emission filter. The data were analyzed by dividing the fluorescence intensity of the stained bacterial suspensions at green emission by the cell fluorescence intensity of red fluorescence. All samples were prepared in triplicates.
structure (smiles),measurement,setting,value
CC[C@H](C)[C@H](NC(=O)COCCOCCNC(=O)[C@H](CCCNC(=N)N)NC(=O)[C@H](CC(C)C)NC(=O)[C@H](Cc1ccccc1)NC(=O)CNC(=O)[C@@H](C)NC(=O)[C@@H](N)Cc1ccc(O)cc1)C(=O)N[C@@H](CCCCN)C(=O)N[C@@H](CCCCN)C(=O)N[C@H](C(=O)N[C@@H](CC(C)C)C(=O)N[C@@H](CO)C(=O)N[C@H](CCCCN)C(=O)N[C@H](C(=O)N[C@@H](CCCCN)C(=O)N[C@@H](CCCCN)C(=O)N[C@@H](CC(C)C)C(=O)N[C@@H](CC(C)C)C(N)=O)[C@@H](C)CC)[C@@H](C)CC [DAL-PEG-DK5] (H-Y[dA]GFLR[AEEA]IKKILS[dK]IKKLL-NH2; N-terminus assumed),MIC,[1],40 µg/mL
same,MIC,[2],60 µg/mL
same,LDH release from HaCaT cells,HaCaT cells [3]; 75 μg/mL,"low, but still significant, release of dehydrogenase"
same,"cytotoxicity (LDH), % of cells",HaCaT cells [3]; 3 and 6 h,40%
same,"cytotoxicity (LDH), % of cells",HaCaT cells [3]; 18 h,100%
same,non-toxic dose for HaCaT cells,HaCaT cells [3]; based on MTT and LDH data,≤ 50 µg/mL
same,MIC,S. aureus ATCC 25923,40 µg/mL
same,MIC,[4],40 µg/mL
same,MIC against the majority of tested MRSA strains (90%),[5]; conversion of 40 μg/mL,17.56 µM
same,MIC against the majority of tested MRSA strains (90%),[5]; estimate of the discussion,40 µg/mL
same,MIC,[6],30 µg/mL
same,MIC,[7],40 µg/mL
same,MIC,[8],40 µg/mL
same,MIC,[9],40 µg/mL
same,reduction in the number of live bacteria in suspension,[10],74%
same,α-helical content,"[11]; circular dichroism, 30 mM SDS in water",35%
same,cationic charge,[11],+7
same,MIC,[12],40 µg/mL
same,reduction of biofilm mass,S. aureus USA300 biofilm,50%
same,MIC,[13],40 µg/mL
same,effect on metabolism of HaCaT cells (MTT),"HaCaT cells [14]; 5 to 75 μg/mL, 3, 6 and 18 h, n = 2",did not affect the metabolism of HaCaT cells
same,effect on metabolically active HaCaT cells (MTT),"HaCaT cells [14]; 100 or 200 μg/mL, 3, 6, 18 h",reduced the number of metabolically active cells in a concentration-dependent manner
same,MIC,[15],50 µg/mL
same,live bacteria,"S. aureus USA300; USA300, 5 μg/mL",20%
same,live bacteria,"S. aureus USA300; USA300, 10 μg/mL",5%
